# Assay results from patent US20140171419A1, “ENHANCEMENT OF CELLULAR TRANSPLANTATION USING SMALL MOLECULE MODULATORS HEPATOCYTE GROWTH FACTOR (SCATTER FACTOR) ACTIVITY” (ANGION BIOMEDICA CORP, priority 2009, published 2014).
# System: primary human hepatocytes
# Test: BrdU cell proliferation assay in cryopreserved primary human hepatocytes
# Assay type: cell-based
# Conditions: 50 ng/ml, overnight treatment, 4 hour BrdU incubation; control 0.032±0.011
# Procedure: Cryopreserved primary human hepatocytes (CellzDirect catalog #[…], Lot # Hu0948) were plated on a collagen-coated 96 well plate according to the supplier's instructions and allowed to adhere and stabilize for 48 hours. Cells were treated with a compound of formula (II) embodied herein (10 μM final concentration) or HGF (50 ng/ml) overnight, and the next day, cell proliferation was determined using a BrdU assay (Chemicon, catalog #2750) according to the manufacturer's instructions, with a 4 hour incubation period of BrdU. Plates were read at 450 and 550 (background) nm and the difference was taken as an indicator of cell proliferation. Both test compound and HGF stimulated the BrdU incorporation in hepatocytes vs. control: test compound, 0.336±0.072; HGF, 0.388±0.134; and control, 0.032±0.011. Hepatocytes enhanced using the compounds of the invention can be used subsequently for cellular transplant into a human recipient, providing enhanced cell survival and numbers to increase the quality of the cells used in the transplant, the survival of cells after transplant and reduce the number of cells required to achieve the desired outcome of the transplant procedure and restoring or enhancing hepatic function in the recipient.
substance,measurement,value
"HGF: hepatocyte growth factor (scatter factor), a pleiotropic growth factor, used as positive comparator","BrdU incorporation (difference of plate readings at 450 and 550 (background) nm, indicator of cell proliferation)",0.388±0.134
